According to patent US9593149B2, “Amylin and calcitonin receptor agonist” (Novo Nordisk A/S, priority 2014, dated 2017):
≈ marks a conversion by molar mass, not a printed value. One block for each compound: values may come before it. Numbered stars: 1 amine (or outer) side, 2 acyl side, 3 side chain; on linkers, the order of the positions; unused ones are H or OH. Side chains are listed from the residue outwards. Peptide text beside a SMILES is read from it. * marks the point of attachment. C20 diacid = O=C(O)CCCCCCCCCCCCCCCCCCC(=O)*; C18 diacid = O=C(O)CCCCCCCCCCCCCCCCC(=O)*; γGlu = O=C(O)[C@H](CCC(=O)[*:2])N[*:1]

Assay: Assay (IV) determination of solubility
Format: physicochemical
Procedure: Assay (IV)—Determination of Solubility
The mimylin peptide was dissolved in water at ˜500 nmol/ml and mixed 1:1 with a series of buffers (100 mM glycylglycine pH 3.0, 100 mM glycylglycine pH 4.0, 100 mM glycylglycine pH 5.0, 100 mM bistrispropane pH 6.0, 100 mM bistrispropane pH 6.5, 100 mM bistrispropane pH 7.0, 100 mM bistrispropane pH 7.5, 100 mM bistrispropane pH 8.0).

Solubility (pH 3.0): ≧200 μM | Solubility (pH 4.0): ≧200 μM | Solubility (pH 5.0): ≧200 μM | solubility at 18 h (pH 6.0): 148 µM (≈ 580 µg/mL) | solubility at 18 h (pH 6.5): 129 µM (≈ 506 µg/mL) | solubility at 18 h (pH 7.0): 74 µM (≈ 290 µg/mL) | Solubility (pH 7.5): ≧200 μM | Solubility (pH 8.0): ≧200 μM
SMILES: CC(C)C[C@H](NC(=O)CNC(=O)[C@H](CO)NC(=O)[C@H](C)N)C(=O)N[C@@H](CO)C(=O)N[C@H](C(=O)N[C@@H](C)C(=O)N[C@@H](C)C(=O)N[C@@H](CC(C)C)C(=O)NCC(=O)N[C@@H](CCCNC(=N)N)C(=O)N[C@@H](CC(C)C)C(=O)N[C@@H](CO)C(=O)N[C@@H](CCC(N)=O)C(=O)N[C@@H](CCC(=O)O)C(=O)N[C@@H](CC(C)C)C(=O)N[C@@H](Cc1cnc[nH]1)C(=O)N[C@@H](CCC(=O)O)C(=O)N[C@@H](CC(C)C)C(=O)N[C@@H](CCC(N)=O)C(=O)N[C@H](C(=O)N[C@@H](Cc1ccc(O)cc1)C(=O)N1CCC[C@H]1C(=O)N[C@@H](CCCNC(=N)N)C(=O)N[C@H](C(=O)N[C@@H](CCC(=O)O)C(=O)N[C@H](C(=O)NCC(=O)N[C@@H](CO)C(=O)N[C@@H](CCCCNC(=O)CC[C@H](NC(=O)CCCCCCCCCCCCCCCCCCC(=O)O)C(=O)O)C(=O)N[C@H](C(=O)N[C@@H](Cc1ccc(O)cc1)C(N)=O)[C@@H](C)O)[C@@H](C)O)[C@@H](C)O)[C@@H](C)O)[C@@H](C)O [compound 107, [des1, 4G, 15Q, 21Q, 23Y, 30S, 31K(C20 diacid-gGlu), 32T, 33Y]mimylin] (H-ASGLSTAALGRLSQELHELQTYPRTETGSK([γGlu-C20 diacid])TY-NH2)

Solubility (pH 3.0): ≧200 μM | solubility at 18 h (pH 4.0): 31 µM (≈ 124 µg/mL) | Solubility (pH 6.0): ≧200 μM | Solubility (pH 6.5): ≧200 μM | Solubility (pH 7.0): ≧200 μM | Solubility (pH 7.5): ≧200 μM | Solubility (pH 8.0): ≧200 μM
SMILES: CC(C)C[C@H](NC(=O)CC[C@H](NC(=O)CCCCCCCCCCCCCCCCCCC(=O)O)C(=O)O)C(=O)N[C@@H](CO)C(=O)NCC(=O)N[C@@H](CC(C)C)C(=O)N[C@@H](CO)C(=O)N[C@H](C(=O)N[C@@H](C)C(=O)N[C@H](C(=O)N[C@@H](CC(C)C)C(=O)NCC(=O)N[C@@H](CCCNC(=N)N)C(=O)N[C@@H](CC(C)C)C(=O)N[C@@H](CO)C(=O)N[C@@H](CCC(N)=O)C(=O)N[C@@H](CCC(=O)O)C(=O)N[C@@H](CC(C)C)C(=O)N[C@@H](Cc1cnc[nH]1)C(=O)N[C@@H](CCC(=O)O)C(=O)N[C@@H](CC(C)C)C(=O)N[C@@H](CCC(N)=O)C(=O)N[C@H](C(=O)N[C@@H](Cc1ccc(O)cc1)C(=O)N1CCC[C@H]1C(=O)N[C@@H](CCCNC(=N)N)C(=O)N[C@H](C(=O)N[C@@H](CCC(=O)O)C(=O)N[C@H](C(=O)NCC(=O)N[C@@H](CO)C(=O)N[C@@H](CCC(N)=O)C(=O)N[C@H](C(=O)N[C@@H](Cc1ccc(O)cc1)C(N)=O)[C@@H](C)O)[C@@H](C)O)[C@@H](C)O)[C@@H](C)O)C(C)C)[C@@H](C)O [compound 127, [N-terminal(C20 diacid-gGlu), des1, 2L, 4G, 9V, 15Q, 21Q, 23Y, 30S, 31Q, 32T, 33Y]mimylin] ({C20 diacid-γGlu}-LSGLSTAVLGRLSQELHELQTYPRTETGSQTY-NH2)

Second part, the compound before the results:

SMILES: CC[C@H](C)[C@H](NC(=O)[C@H](C)NC(=O)[C@@H](NC(=O)[C@H](CO)NC(=O)[C@H](CC(C)C)NC(=O)[C@H](CCC(=O)O)NC(=O)[C@H](CO)NC(=O)[C@H](C)NC(=O)[C@H](CCC(=O)O)NC(=O)CCCCCCCCCCCCCCCCC(=O)O)[C@@H](C)O)C(=O)N[C@@H](CC(C)C)C(=O)NCC(=O)N[C@@H](CCCNC(=N)N)C(=O)N[C@@H](CC(C)C)C(=O)N[C@@H](CO)C(=O)N[C@@H](C)C(=O)N[C@@H](CCC(=O)O)C(=O)N[C@@H](CC(C)C)C(=O)N[C@@H](Cc1cnc[nH]1)C(=O)N[C@@H](CCC(=O)O)C(=O)N[C@@H](CC(C)C)C(=O)N[C@@H](C)C(=O)N[C@H](C(=O)N[C@@H](CC(C)C)C(=O)N1CCC[C@H]1C(=O)N[C@@H](CCCNC(=N)N)C(=O)N[C@H](C(=O)N[C@@H](CCC(=O)O)C(=O)N[C@H](C(=O)NCC(=O)N1CCC[C@H]1C(=O)N[C@@H](CCC(=O)O)C(=O)N[C@@H](CO)C(=O)N1CCC[C@H]1C(N)=O)[C@@H](C)O)[C@@H](C)O)[C@@H](C)O [compound 10, [N-terminal(C18 diacid), 9I]mimylin] ({C18 diacid}-EASELSTAILGRLSAELHELATLPRTETGPESP-NH2)
Solubility (pH 3.0): ≧200 μM | solubility at 18 h (pH 4.0): 182 µM (≈ 687 µg/mL) | Solubility (pH 5.0): ≧200 μM | Solubility (pH 6.0): ≧200 μM | Solubility (pH 6.5): ≧200 μM | Solubility (pH 7.0): ≧200 μM | Solubility (pH 7.5): ≧200 μM | Solubility (pH 8.0): ≧200 μM

SMILES: CC(C)C[C@H](NC(=O)[C@H](C)NC(=O)[C@H](C)NC(=O)[C@@H](NC(=O)[C@H](CO)NC(=O)[C@H](CC(C)C)NC(=O)[C@H](CCC(=O)O)NC(=O)[C@H](CO)NC(=O)[C@H](C)NC(=O)CC[C@H](NC(=O)CCCCCCCCCCCCCCCCCCC(=O)O)C(=O)O)[C@@H](C)O)C(=O)NCC(=O)N[C@@H](CCCNC(=N)N)C(=O)N[C@@H](CC(C)C)C(=O)N[C@@H](CO)C(=O)N[C@@H](C)C(=O)N[C@@H](CCC(=O)O)C(=O)N[C@@H](CC(C)C)C(=O)N[C@@H](Cc1cnc[nH]1)C(=O)N[C@@H](CCC(=O)O)C(=O)N[C@@H](CC(C)C)C(=O)N[C@@H](C)C(=O)N[C@H](C(=O)N[C@@H](CC(C)C)C(=O)N1CCC[C@H]1C(=O)N[C@@H](CCCNC(=N)N)C(=O)N[C@H](C(=O)N[C@@H](CCC(=O)O)C(=O)N[C@H](C(=O)NCC(=O)N[C@@H](CO)C(=O)NCC(=O)N[C@@H](CO)C(=O)N[C@@H](CO)C(N)=O)[C@@H](C)O)[C@@H](C)O)[C@@H](C)O [compound 63, [N-terminal(C20 diacid-gGlu), des1, 30S, 31G, 33S]mimylin] ({C20 diacid-γGlu}-ASELSTAALGRLSAELHELATLPRTETGSGSS-NH2)
Solubility (pH 3.0): ≧200 μM | Solubility (pH 4.0): ≧200 μM | Solubility (pH 5.0): ≧200 μM | Solubility (pH 6.0): ≧200 μM | Solubility (pH 6.5): ≧200 μM | Solubility (pH 7.0): ≧200 μM | Solubility (pH 7.5): ≧200 μM | Solubility (pH 8.0): ≧200 μM

SMILES: CC(C)C[C@H](NC(=O)[C@H](C)NC(=O)[C@H](C)NC(=O)[C@@H](NC(=O)[C@H](CO)NC(=O)[C@H](CC(C)C)NC(=O)[C@H](CCC(=O)O)NC(=O)[C@H](CO)NC(=O)[C@H](C)NC(=O)CC[C@H](NC(=O)CCCCCCCCCCCCCCCCC(=O)O)C(=O)O)[C@@H](C)O)C(=O)NCC(=O)N[C@@H](CCCNC(=N)N)C(=O)N[C@@H](CC(C)C)C(=O)N[C@@H](CO)C(=O)N[C@@H](C)C(=O)N[C@@H](CCC(=O)O)C(=O)N[C@@H](CC(C)C)C(=O)N[C@@H](Cc1cnc[nH]1)C(=O)N[C@@H](CCC(=O)O)C(=O)N[C@@H](CC(C)C)C(=O)N[C@@H](C)C(=O)N[C@H](C(=O)N[C@@H](CC(C)C)C(=O)N1CCC[C@H]1C(=O)N[C@@H](CCCNC(=N)N)C(=O)N[C@H](C(=O)N[C@@H](CCC(=O)O)C(=O)N[C@H](C(=O)NCC(=O)N[C@@H](CO)C(=O)N1CCC[C@H]1C(=O)N[C@@H](CO)C(=O)N1CCC[C@H]1C(N)=O)[C@@H](C)O)[C@@H](C)O)[C@@H](C)O [compound 35, [N-terminal(C18 diacid-gGlu), des1, 30S, 31P]mimylin] ({C18 diacid-γGlu}-ASELSTAALGRLSAELHELATLPRTETGSPSP-NH2)
Solubility (pH 3.0): ≧200 μM | Solubility (pH 4.0): ≧200 μM | Solubility (pH 5.0): ≧200 μM | Solubility (pH 6.0): ≧200 μM | Solubility (pH 6.5): ≧200 μM | Solubility (pH 7.0): ≧200 μM | Solubility (pH 7.5): ≧200 μM | Solubility (pH 8.0): ≧200 μM
